Test results published in patent publication US4105798A, “Perfluoro polycyclic compounds for use as synthetic blood and perfusion media” (Sun Ventures, Inc., priority 1977, dated 1978).

Legend:
[1] = percentage of injected PF material still in the liver of mice after stated weeks; format: in vivo
Description: As indicated above, retention of the material in the body is important. The data below compare perfluorinated tributylamine (PFTBA), decalin (PFD), and methyldecalin (PFMD), with certain of the perfluorinated polycyclic hydrocarbons of this invention which have been obtained by perfluorinating the said polycyclic materials with just CoF3. Thus, in the table below "PFDMA" is the perfluorinated product derived from dimethyladamantane, i.e. a mixture of perfluorotrimethylbicyclo [3.3.1]nonane containing about 25 percent of other materials, principally perfluorinated dimethyladamantane. "PFMA" is the perfluorinated product of methyladamantane i.e., a mixture of perfluorodimethylbicyclo [3.3.1]nonanecontaining an unidentified amount of other compounds including perfluoromethyladamantane. Finally, "PFTHDCP" is the product of tetrahydrodicyclopentadiene, i.e. perfluorobicyclo [5.3.0] decane containing about 50 percent of other materials, principally perfluorotetrahydrodicyclopentadiene.
Emulsions containing 10% of the material to be tested, surfactant and water are made up and tested in the manner specified in Science, Vol. 181, August 1973, page 681. Mice were injected with the various emulsions. The mice were killed at intervals thereafter, the liver analyzed, and the percentage of original amount of PF material injected and still in the liver was determined.

[2] = relative emulsion stability; format: physicochemical
Method: (§1) The relative stability of a PFDMA emulsion and PFMA is excellent in that it is stable indefinitely, (e.g., over 6 months) at 4°-7° C whereas the PFD emulsion breaks down in several days at room temperature and in several weeks at 4°-7° C. PFTBA is also excellent. See for example the Journal of Microvascular Research, August 1974.

[3] = optical density / appearance of emulsion; format: physicochemical; conditions: for optical density of emulsion: emulsions prepared in the same manner
Method: as §1

[4] = LD50 after infusion of emulsion; format: in vivo; conditions: emulsions: 10.9% PFD, 10% PFDMA, 5% PFMA, 10% PFTBA
Description: The LD50 after infusion (ml/kg) of our materials compared with others are follows: […]

Percent of Dose in Liver After Stated Weeks ([1]; mouse, in vivo, 201600 min) [%] | Compound | Percent of Dose in Liver After Stated Weeks ([1]; mouse, in vivo, 20160 min) [%] | Percent of Dose in Liver After Stated Weeks ([1]; mouse, in vivo, 60480 min) [%] | Percent of Dose in Liver After Stated Weeks ([1]; mouse, in vivo, 120960 min) [%] | time to emulsion break down ([2]; 4°-7° C) | time to emulsion break down ([2]; room temperature) | optical density of emulsion [3] | LD50 after infusion, 1 Hr. [4] [mL/kg] | LD50 after infusion, 3 Days [4] [mL/kg] | LD50 after infusion, 7 Days [4] [mL/kg] | Percent of Dose in Liver After Stated Weeks ([1]; mice, injected emulsion containing 10% of material, 2 weeks) [%] | Percent of Dose in Liver After Stated Weeks ([1]; mice, injected emulsion containing 10% of material, 6 weeks) [%] | Percent of Dose in Liver After Stated Weeks ([1]; mice, injected emulsion containing 10% of material, 12 weeks) [%] | Percent of Dose in Liver After Stated Weeks ([1]; mice, injected emulsion containing 10% of material, 20 weeks) [%] | relative stability of emulsion (in words) ([2]; emulsion) | appearance of emulsion ([3]; in words)
 | FC1(F)C(F)(F)C(F)(F)C2(F)C(F)(F)C(F)(F)C(F)(F)C(F)(F)C2(F)C1(F)F (centres unmarked) [PFD, perfluorodecalin] | 4 | 2 | 2 | several weeks | several days | 0.4 | 190 | 160 | 159 |  |  |  |  |  | 
 | FC(F)(F)C(F)(F)C(F)(F)C(F)(F)N(C(F)(F)C(F)(F)C(F)(F)C(F)(F)F)C(F)(F)C(F)(F)C(F)(F)C(F)(F)F [PFTBA, perfluorinated tributylamine] |  |  |  |  |  | 2.2 | 200 | 120 | 120 | 38 | 30 | 30 | 30 | excellent | very milky in appearance
2 | methyldecalin [PFMD] | 30 | 19 | 2 |  |  |  |  |  |  |  |  |  |  |  | 
